Reference: PubChem BioAssay AID1259407 (Chemical Carcinogenesis Research Information System (CCRIS), 2018)
Calls of active or inactive are those of the source. How the calls were made is not given here.

System: CCRIS mutagenicity, Ames/micronucleus/aberration tests
Assay: CCRIS mutagenicity studies
[1] = Test System: AMES SALMONELLA TYPHIMURIUM, Strain/Indicator: TA98, Metabolic Activation: NONE, Method: STANDARD PLATE
[2] = Test System: AMES SALMONELLA TYPHIMURIUM, Strain/Indicator: TA100, Metabolic Activation: NONE, Method: STANDARD PLATE
[3] = Test System: AMES SALMONELLA TYPHIMURIUM, Strain/Indicator: TA98, Metabolic Activation: NONE, Method: PREINCUBATION
[4] = Test System: AMES SALMONELLA TYPHIMURIUM, Strain/Indicator: TA100, Metabolic Activation: NONE, Method: PREINCUBATION
[5] = Test System: AMES SALMONELLA TYPHIMURIUM, Strain/Indicator: TA98, Metabolic Activation: HAMSTER, LIVER, S-9, AROCLOR 1254 (10%), Method: PREINCUBATION
[6] = Test System: AMES SALMONELLA TYPHIMURIUM, Strain/Indicator: TA98, Metabolic Activation: RAT, LIVER, S-9, AROCLOR 1254 (10%), Method: PREINCUBATION
[7] = Test System: AMES SALMONELLA TYPHIMURIUM, Strain/Indicator: TA100, Metabolic Activation: HAMSTER, LIVER, S-9, AROCLOR 1254 (10%), Method: PREINCUBATION
[8] = Test System: AMES SALMONELLA TYPHIMURIUM, Strain/Indicator: TA100, Metabolic Activation: RAT, LIVER, S-9, AROCLOR 1254 (10%), Method: PREINCUBATION
[9] = Test System: AMES SALMONELLA TYPHIMURIUM, Strain/Indicator: TA1535, Metabolic Activation: HAMSTER, LIVER, S-9, AROCLOR 1254 (10%), Method: PREINCUBATION
[10] = Test System: AMES SALMONELLA TYPHIMURIUM, Strain/Indicator: TA1535, Metabolic Activation: NONE, Method: PREINCUBATION
[11] = Test System: AMES SALMONELLA TYPHIMURIUM, Strain/Indicator: TA1535, Metabolic Activation: RAT, LIVER, S-9, AROCLOR 1254 (10%), Method: PREINCUBATION
[12] = Test System: AMES SALMONELLA TYPHIMURIUM, Strain/Indicator: TA1537, Metabolic Activation: HAMSTER, LIVER, S-9, AROCLOR 1254 (10%), Method: PREINCUBATION
[13] = Test System: AMES SALMONELLA TYPHIMURIUM, Strain/Indicator: TA1537, Metabolic Activation: NONE, Method: PREINCUBATION
[14] = Test System: AMES SALMONELLA TYPHIMURIUM, Strain/Indicator: TA1537, Metabolic Activation: RAT, LIVER, S-9, AROCLOR 1254 (10%), Method: PREINCUBATION
[15] = End Point: IN VITRO CHROMOSOMAL ABERRATIONS, Test System: CHINESE HAMSTER OVARY CELLS, Metabolic Activation: RAT, LIVER, S-9, AROCLOR 1254

With O=[N+]([O-])c1ccc2ccc3c4c(cc5ccc1c2c53)CCCC4 the mutagenic call [1] was “active; positive” and the mutagenic call [2] was “inactive; negative”.
O=[N+]([O-])c1ccc2c(c1)-c1nc3ccccc3c3c1c-2nc1ccccc13 was tested, and the mutagenic call [1] was “active; positive”, the mutagenic call (Test System: AMES SALMONELLA TYPHIMURIUM, Strain/Indicator: TA98, Metabolic Activation: RAT LIVER S-9, AROCLOR 1254, Method: STANDARD PLATE) was “active; positive” and the mutagenic call (Test System: ESCHERICHIA COLI, Strain/Indicator: WP2 UVR A, Metabolic Activation: NONE, Method: STANDARD PLATE) was “inactive; negative”. The mutagenic call (Test System: ESCHERICHIA COLI, Strain/Indicator: WP2 UVR A, Metabolic Activation: RAT LIVER S-9, AROCLOR 1254, Method: STANDARD PLATE) was “inactive; negative”.
For O=[N+]([O-])c1cc2c(ccc3ccccc32)c2c1C=C[C@H](O)[C@H]2O, the mutagenic call [3] was “active; positive”, the mutagenic call (Test System: AMES SALMONELLA TYPHIMURIUM, Strain/Indicator: TA98, Metabolic Activation: RAT, LIVER, S-9, AROCLOR 1254, Method: PREINCUBATION) was “inactive; negative” and the mutagenic call [4] was “active; positive”. For the same compound, the mutagenic call (Test System: AMES SALMONELLA TYPHIMURIUM, Strain/Indicator: TA100, Metabolic Activation: RAT, LIVER, S-9, AROCLOR 1254, Method: PREINCUBATION) was “active; positive”.
CCCCCCCCCCCCOCCO was tested, and the mutagenic call (End Point: IN VITRO CHROMOSOMAL ABERRATIONS, Test System: CHO-LB CELLS, Metabolic Activation: NONE) was “inactive; negative”, the mutagenic call (End Point: IN VITRO CHROMOSOMAL ABERRATIONS, Test System: CHO-LB CELLS, Metabolic Activation: RAT, LIVER, S-9, AROCLOR 1254) was “inactive; negative” and the mutagenic call [5] was “inactive; negative”. For the same compound, the mutagenic call [3] was “inactive; negative”, the mutagenic call [6] was “inactive; negative” and the mutagenic call [7] was “inactive; negative”. For the same compound, the mutagenic call [4] was “inactive; negative”, the mutagenic call [8] was “inactive; negative” and the mutagenic call [9] was “inactive; negative”. For the same compound, the mutagenic call [10] was “inactive; negative”, the mutagenic call [11] was “inactive; negative” and the mutagenic call [12] was “inactive; negative”. The mutagenic call [13] was “inactive; negative”, the mutagenic call [14] was “inactive; negative” and the mutagenic call (Test System: E. COLI, Strain/Indicator: WP2 UVRA, Metabolic Activation: NONE, Method: STANDARD PLATE) was “inactive; negative”. The mutagenic call (Test System: E. COLI, Strain/Indicator: WP2 UVRA, Metabolic Activation: S-9, Method: STANDARD PLATE) was “inactive; negative”.
With O=[N+]([O-])c1ccc2c3c(cccc13)-c1cc(O)ccc1-2 the mutagenic call (Test System: AMES SALMONELLA TYPHIMURIUM, Strain/Indicator: TA98(1,8-DNP6), Metabolic Activation: NONE, Method: STANDARD PLATE) was “inactive; negative”, the mutagenic call (Test System: AMES SALMONELLA TYPHIMURIUM, Strain/Indicator: TA98(NR), Metabolic Activation: NONE, Method: STANDARD PLATE) was “active; positive” and the mutagenic call [1] was “active; positive”. For the same compound, the mutagenic call (Test System: AMES SALMONELLA TYPHIMURIUM, Strain/Indicator: TA98, Metabolic Activation: RAT, LIVER, S-9, AROCLOR 1254, Method: STANDARD PLATE) was “active; positive”, the mutagenic call (Test System: AMES SALMONELLA TYPHIMURIUM, Strain/Indicator: TA100(NR), Metabolic Activation: NONE, Method: STANDARD PLATE) was “inactive; negative” and the mutagenic call (Test System: AMES SALMONELLA TYPHIMURIUM, Strain/Indicator: TA100(TN5-1,8-DNP1012), Metabolic Activation: NONE, Method: STANDARD PLATE) was “inactive; negative”. For the same compound, the mutagenic call [2] was “active; positive”.
In the case of Nc1ccc(O)c(N)c1, the mutagenic call (End Point: IN VITRO CHROMOSOMAL ABERRATIONS, Test System: CHINESE HAMSTER OVARY CELLS, Metabolic Activation: NONE) is reported as “inactive; negative”, the mutagenic call [15] is reported as “inactive; negative” and the mutagenic call [5] is reported as “active; positive”. The mutagenic call [3] was “inactive; negative”, the mutagenic call [6] was “active; positive” and the mutagenic call [7] was “inactive; negative”. For the same compound, the mutagenic call [4] was “inactive; negative”, the mutagenic call [8] was “inactive; negative” and the mutagenic call [9] was “inactive; negative”. For the same compound, the mutagenic call [10] was “inactive; negative”, the mutagenic call [11] was “inactive; negative” and the mutagenic call [12] was “inactive; negative”. For the same compound, the mutagenic call [13] was “inactive; negative”, the mutagenic call [14] was “inactive; negative” and the mutagenic call (Test System: MOUSE LYMPHOMA, Strain/Indicator: L5178Y (TK+/TK-), Metabolic Activation: NONE, Method: SUSPENSION/PLATE) was “active; positive”.
For CC(Cl)CCl (centres undefined), the mutagenic call [15] was “active; positive”, the mutagenic call [3] was “inactive; negative” and the mutagenic call (Test System: AMES SALMONELLA TYPHIMURIUM, Strain/Indicator: TA98, Metabolic Activation: RAT LIVER S-9, PHENOBARBITAL AND BETA-NAPHTHOFLAVONE, Method: PREINCUBATION) was “inactive; negative”. The mutagenic call [4] was “inactive; negative”, the mutagenic call [2] was “active; positive” and the mutagenic call (Test System: AMES SALMONELLA TYPHIMURIUM, Strain/Indicator: TA100, Metabolic Activation: RAT LIVER S-9, PHENOBARBITAL AND BETA-NAPHTHOFLAVONE, Method: PREINCUBATION) was “inactive; negative”. The mutagenic call (Test System: AMES SALMONELLA TYPHIMURIUM, Strain/Indicator: TA100, Metabolic Activation: RAT, LIVER, S-9, AROCLOR 1254, Method: STANDARD PLATE) was “active; positive”, the mutagenic call (Test System: AMES SALMONELLA TYPHIMURIUM, Strain/Indicator: TA102, Metabolic Activation: NONE, Method: PREINCUBATION) was “inactive; negative” and the mutagenic call (Test System: AMES SALMONELLA TYPHIMURIUM, Strain/Indicator: TA102, Metabolic Activation: RAT LIVER S-9, PHENOBARBITAL AND BETA-NAPHTHOFLAVONE, Method: PREINCUBATION) was “inactive; negative”. For the same compound, the mutagenic call (Test System: AMES SALMONELLA TYPHIMURIUM, Strain/Indicator: TA104, Metabolic Activation: NONE, Method: PREINCUBATION) was “inactive; negative”, the mutagenic call (Test System: AMES SALMONELLA TYPHIMURIUM, Strain/Indicator: TA104, Metabolic Activation: RAT LIVER S-9, PHENOBARBITAL AND BETA-NAPHTHOFLAVONE, Method: PREINCUBATION) was “inactive; negative” and the mutagenic call [10] was “inactive; negative”. For the same compound, the mutagenic call (Test System: AMES SALMONELLA TYPHIMURIUM, Strain/Indicator: TA1535, Metabolic Activation: NONE, Method: STANDARD PLATE) was “active; positive”, the mutagenic call (Test System: AMES SALMONELLA TYPHIMURIUM, Strain/Indicator: TA1535, Metabolic Activation: RAT LIVER S-9, PHENOBARBITAL AND BETA-NAPHTHOFLAVONE, Method: PREINCUBATION) was “inactive; negative” and the mutagenic call (Test System: AMES SALMONELLA TYPHIMURIUM, Strain/Indicator: TA1535, Metabolic Activation: RAT, LIVER, S-9, AROCLOR 1254, Method: STANDARD PLATE) was “active; positive”. The mutagenic call [13] was “inactive; negative”, the mutagenic call (Test System: AMES SALMONELLA TYPHIMURIUM, Strain/Indicator: TA1537, Metabolic Activation: RAT LIVER S-9, PHENOBARBITAL AND BETA-NAPHTHOFLAVONE, Method: PREINCUBATION) was “inactive; negative” and the mutagenic call (Test System: E.COLI, Strain/Indicator: WP2UVRA/PKM101, Metabolic Activation: NONE, Method: PREINCUBATION) was “inactive; negative”. The mutagenic call (Test System: E.COLI, Strain/Indicator: WP2UVRA/PKM101, Metabolic Activation: RAT LIVER S-9, PHENOBARBITAL AND BETA-NAPHTHOFLAVONE, Method: PREINCUBATION) was “inactive; negative”, the mutagenic call (Test System: E.COLI, Strain/Indicator: WP2UVRA, Metabolic Activation: NONE, Method: PREINCUBATION) was “inactive; negative” and the mutagenic call (Test System: E.COLI, Strain/Indicator: WP2UVRA, Metabolic Activation: RAT LIVER S-9, PHENOBARBITAL AND BETA-NAPHTHOFLAVONE, Method: PREINCUBATION) was “inactive; negative”.
